Entries after “also recorded” stand apart in the source; their conditions may differ.
Columns and labels:
[1] = tested on: CD123-positive MOLM-13 cells; test: 5-azacytidine and venetoclax cytotoxic assays in the absence or presence of NK cells (6 h, 24 h, 48 h); type: cell-based; details: VEN 1 μM
Experimental: (§1) Finally, NK cell at effector:target (E:T) ratio of 1:1 (thus 0.05×10^6 cells/well) were incubated with MOLM-13 cell line at 37° C. in the presence of 5% CO2. After 6 h, 24 h, or 48 h, plates were centrifuged at 300 g for 5 minutes at RT. The Tampon Running Buffer or the selected antibodies were added to the cell pellets (50 μL/well) to assess cell viability and to perform the flow cytometry-based staining.

MOLM-13 cells = test: MOLM-13 cell viability over 72 h and 6 days with AZA or VEN (flow cytometry); type: cell-based
Experimental: (§2) Following the proper timing of incubation (from 6 h to 72 h), 0.05×10^6 cells/well MOLM-13 and NK cells in 96-well round bottom plates (Corning® Costar® Ultra-Low Attachment Multiple 96-Well Plate; Thermo Scientific, Denmark, ref #7007) were centrifuged at 300 g for 5 minutes at RT. Supernatant was aspirated and Tampon Running Buffer (Miltenyi, ref #130-091-2221) or the antibodies were added to the cell pellets (50 μL/well). In addition, 1 μL of each antibody was used to stain the compensation beads. The cells and the beads were incubated for 20 minutes at 4° C. Two consecutive washing steps were performed by adding 150 and then 200 μL of Tampon Running Buffer in the wells followed by centrifugation at 300 g for 5 minutes at 4° C.
(§3) Finally, 100 μL/well of PBS were added before reading the plate by MACSQuant Analyzer 16 Flow Cytometer. The propidium iodide (PI) marker of viability was added to every well reading at 1/10 dilution.

CD16a on NK cells = test: CD16a expression on NK cells by flow cytometry; type: cell-based, human; details: 1 μM AZA or 1 nM VEN
Experimental: (§4) Human NK cells were purified from PBMCs using MACSxpress® Whole Blood NK Cell Isolation Kit (Miltenyi, ref #130-127-695) according to supplier recommendations. NK cells were then cultured in complete medium at 5×10^6 cells/mL at +37° C. at 5% CO2 (so called “resting” NK cells) overnight before being used in the activation assay.
as §2, §3

CD123 on MOLM-13 cells = test: CD123 expression on MOLM-13 cells by flow cytometry; type: cell-based; details: for CD123 expression level (MedFI) on MOLM-13 cells: 0.01 nM to 10 μM; for CD123 expression (median fluorescence intensity) on MOLM-13 cells: 1 nM and 1 μM, 6 h, 24 h or 48 h, MOLM-13 alone or with NK cells from two donors; for CD123 target expression on MOLM-13 AML tumor cells (conclusion): at the tested concentrations, up to 6 days of treatment
Experimental: as §2, §3, §1

[2] = cited from earlier work
NK cells [3] = test: NK cell phenotype in the presence of AZA or VEN; type: cell-based, human; details: AZA or VEN at defined concentrations (1 μM AZA, 1 nM VEN, 48 h)
Experimental: as §4, §2, §3

NK cells [4] = test: NK cell viability after treatment with AZA or VEN; type: cell-based, human; details: 0.01 nM to 10 μM, 48 h, 3 independent NK donors
Experimental: as §4
(§5) Of these serial dilutions 100 μL of VEN (single agent) was added to each well that contains 100 μL of cell suspension to obtain a final concentration of 10, 1, 0.1, 0.01, 0.001, 0.0001, 0.00001 μM in a final volume of 200 μL/well.
as §2, with “Two consecutive washing steps were performed by adding 150 and then 200 μL of Tampon Running Buffer in the wells followed by centrifugation at 300 g for 5 minutes at 4° C.” left out
as §3

[5] = tested on: CD123-positive MOLM-13 AML cell line; test: 5-azacytidine and venetoclax flow cytometry cytotoxic assay, 48 h; type: cell-based
Experimental: The MOLM-13 cell line (DSMZ ACC 554) is an acute myeloid leukemia cell line. These cells are mostly round cells growing in suspension. For maintenance, cells were resuspended in fresh RPMI1640 medium supplemented with 10% Fetal Bovin Serum (FBS; Biowest, ref #S140H-100) and 2 mM L-Glutamine (Gibco, ref #25030-024) referred as complete culture medium at 0.3×10^6 cells/mL for 3 or 4 days.
On the day of the assay, the product was thawed and vortexed to eliminate potential aggregates before cascade dilution. A first dilution of 1/100 was performed in complete culture medium. Then, a dilution range from 20 μM (twice concentrated) to 20 pM (1/10 serial dilution) was performed in complete culture medium to assess the concentration-dependent effect of the single agent.
Similarly, stock solution of VEN was stored in complete culture medium at 4° C. On the day of the assay, the product was vortexed to eliminate potential aggregates before cascade dilution. A dilution range from 20 μM (twice concentrated) to 20 pM (1/10 serial dilution) was performed in complete culture medium to assess the concentration-dependent effect of the single agent.
as §5
CD123-positive MOLM-13 target cells were counted the day of the assay and the amount of cell needed for the experiment was evaluated. Target cells were seeded at 0.05×10^6 cells/50 μL of complete culture medium per well.
In the meantime, compound seral dilutions or the four defined concentrations were prepared and added to a U-bottom 96-well plate (100 μL/well). As controls, target cells alone without drugs, were cultured at the same concentration in complete culture medium (200 μL/well). Each condition was performed in monoplicate.
Culture plates were incubated at 37° C. in the presence of 5% CO2 for 48 h. The plates were centrifuged at 300 g for 5 minutes at RT and resuspended in 100 μL of PBS to the following reading by MACSQuant Analyzer 16 Flow. The marker of viability PI was added to every well reading at dilution 1/10.

NKp46 on NK cells = test: NKp46 expression on NK cells by flow cytometry; type: cell-based, human; details: 1 μM AZA or 1 nM VEN
Experimental: as §4, §2, §3

MOLM-13 RFP AML cells = test: Incucyte in vitro killing assay with NK effector cells, E:T 1:1; type: cell-based; details: CD123 NKCE 5 ng/mL, AZA 600 nM or VEN 2 nM
Experimental: MOLM-13 RFP cells were generated by infecting MOLM-13 (DSMZ, ACC: 554) with the Incucyte® Nuclight Red Lentivirus (Sartorius #4476) to express a nuclear-restricted mKate2 (red fluorescent protein, RFP). MOLM-13 RFP cells were harvested in the same culture medium used for wild-type cells with the addition of 1 μg/mL of puromycin (Gibco, ref #A11138-03) to maintain the selection pressure.
Human NK cells were purified from PBMCs using MACSxpress® Whole Blood NK Cell Isolation Kit (Miltenyi, ref #130-127-695) according to supplier recommendations. […]
Cytotoxicity was evaluated using the Incucyte live-cells analysis system which allows to quantify the number of live fluorescent target cells over time.
First, 50 μL of CD123 NKCE and its isotype control were distributed in the appropriate wells of an F-bottom (flat-bottom) 96-well plate coated with poly-D-lysine (Greiner BioOne ref #655946). CD123 NKCE was tested at 5 ng/mL, while its isotype was evaluated at the highest concentration of 100 ng/ml. […]
The growth/proliferation of MOLM-13 RFP tumor cells was monitored by cell imaging up to 64 h using the Incucyte® S3 with standard scans every 4 h. […] Tumor cells growth/proliferation was calculated by counting the number of red cells at each time point, which was then normalized to the number of cells at time zero and expressed as a percentage.

[6] = at the dose of 400 mg; cited from earlier work

Row | SMILES | CD16a expression level on NK cells (CD16a on NK cells) | CD123 expression level (MedFI) on MOLM-13 cells (CD123 on MOLM-13 cells; 48 h) | CD123 expression (median fluorescence intensity) on MOLM-13 cells (CD123 on MOLM-13 cells) | CD123 target expression on MOLM-13 AML tumor cells (conclusion) (CD123 on MOLM-13 cells) | impact on NK cell phenotype (NK cells [3]) | NK cell viability (NK cells [4]) | NKp46 expression level on NK cells (NKp46 on NK cells) | target cell lysis, single agent (MOLM-13 RFP AML cells) | other results
1 | CC1(C)CCC(CN2CCN(c3ccc(C(=O)NS(=O)(=O)c4ccc(NCC5CCOCC5)c([N+](=O)[O-])c4)c(Oc4cnc5[nH]ccc5c4)c3)CC2)=C(c2ccc(Cl)cc2)C1 [VEN] | no impact | mild reduction | did not impact | minimal impact | minimal impact | did not negatively impact; also recorded: no cytotoxic effect | no impact | increased target cell lysis; also recorded: some target lysis | killing potential on MOLM-13 cells [1]: enhanced killing potential; impact on MOLM-13 cell viability ([1]; 6 h): no impact; impact on MOLM-13 cell viability ([1]; 24 h): moderate; impact on MOLM-13 cell viability ([1]; 48 h): strong impact; MOLM-13 viability (MOLM-13 cells; VEN 2, 5 and 10 nM): impacted MOLM-13 viability mainly after 6 days; aqueous solubility [2]: very low; MOLM-13 cell viability, concentration-dependent response ([5]; VEN 0.01 nM to 10 μM, 48 h): impact on MOLM-13 cell viability from 10 nM to 10 μM; killing activity as a single agent ([5]; VEN at its plasma concentration, 2 μM): very strong killing activity; plasma concentration [6]: 2000 nM
2 | Nc1ncn([C@@H]2O[C@H](CO)[C@@H](O)[C@H]2O)c(=O)n1 [AZA, 4-amino-1-beta-D-ribofuranosyl-s-triazin-2 (1H)-one] | no impact | minimal impact | did not impact | minimal impact | minimal impact | did not negatively impact; also recorded: no cytotoxic effect | no impact | increased target cell lysis; also recorded: some target lysis | MOLM-13 cell viability (MOLM-13 cells; AZA 600 nM and 3 μM): did not affect; CD123 median of fluorescence intensity (MedFI) on MOLM-13 cells (CD123 on MOLM-13 cells; AZA at 1 and 10 μM, 48 h): slight decrease; MOLM-13 AML cell viability ([5]; AZA at high concentration (10 μM), 48 h): strongly decreased; also recorded: cytotoxic activity; MOLM-13 AML cell viability ([5]; AZA at lower concentrations, 48 h, compared to non-treated control): No effect
